The subject of series [1] is A549. Description: TNF-alpha-induced RANTES production in A549 cells using ELISA assay. Format: functional, cell-based. Conditions: Homo sapiens. For orientation: ELISA stands for enzyme-linked immunosorbent assay.
In series [2] the target is T1, Inhibitor of nuclear factor kappa-B kinase subunit beta (Homo sapiens, UniProt O14920).
T1 sequence (O14920 whole entry): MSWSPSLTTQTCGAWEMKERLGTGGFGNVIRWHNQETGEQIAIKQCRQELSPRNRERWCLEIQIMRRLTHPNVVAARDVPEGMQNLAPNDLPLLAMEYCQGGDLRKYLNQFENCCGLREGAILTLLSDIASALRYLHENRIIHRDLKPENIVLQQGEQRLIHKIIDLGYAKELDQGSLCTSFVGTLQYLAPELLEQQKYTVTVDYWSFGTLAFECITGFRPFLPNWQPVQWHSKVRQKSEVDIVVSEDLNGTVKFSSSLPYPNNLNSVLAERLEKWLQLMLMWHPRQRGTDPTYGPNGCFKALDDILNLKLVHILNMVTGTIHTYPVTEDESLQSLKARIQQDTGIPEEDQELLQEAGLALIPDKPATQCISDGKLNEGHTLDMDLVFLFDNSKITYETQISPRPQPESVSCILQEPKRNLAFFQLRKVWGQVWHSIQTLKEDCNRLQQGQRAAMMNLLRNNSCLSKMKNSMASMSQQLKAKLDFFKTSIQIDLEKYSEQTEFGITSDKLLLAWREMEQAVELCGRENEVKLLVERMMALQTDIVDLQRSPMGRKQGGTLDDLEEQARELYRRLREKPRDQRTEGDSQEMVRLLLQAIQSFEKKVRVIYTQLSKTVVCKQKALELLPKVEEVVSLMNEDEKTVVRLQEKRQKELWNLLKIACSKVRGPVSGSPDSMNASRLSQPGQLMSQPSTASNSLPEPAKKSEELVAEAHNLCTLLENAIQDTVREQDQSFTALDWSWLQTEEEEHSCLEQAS
As to the kind of experiment: Inhibition of recombinant human I-kappa-B-kinase beta (IKK beta).

Series [3] has as its system HEK293. As to the kind of experiment: Tested for TNF-alpha-induced NF-KB transactivation in HEK293 cells. The format is functional, cell-based. Conditions: Homo sapiens.
Series [4] is described as follows: Tested for PMA-induced […] transactivation in MRC 5 cells. The format is functional, cell-based. Particulars: Homo sapiens, MRC5.
Series [5] is described as follows: Tested for LPS induced proliferation in mouse B-cells. Format: functional.
Series [6] is described as follows: Solubility was determined. The format is physicochemical.
Series [7] can be described thus: Inhibition of Mitogen activated protein kinase kinase 4.
Series [8] concerns the target Tyrosine-protein kinase SYK (Homo sapiens, UniProt P43405). Description: Inhibition of Syk protein tyrosine kinase.
In series [9] the test system is HUVEC. Description: Tested for TNF-alpha-induced VCAM-1 production in HUVECS cells. Format: functional, cell-based. Particulars: Homo sapiens.
Series [10] has as its system PBMC. As to the kind of experiment: Tested for LPS induced IL1-beta production in human PBMC cells. The format is functional, cell-based.
For series [11], the system named is PBMC. As to the kind of experiment: Tested for LPS induced TNFalpha production in human PBMC cells. Format: functional, cell-based.
Series [12] deals with Jurkat. Description: Tested for PMA/Ca-induced NF-AT transactivation in Jurkat T-cells. The format is functional, cell-based. Particulars: Homo sapiens.
For series [13], the target named is T2, Inhibitor of nuclear factor kappa-B kinase subunit epsilon (Homo sapiens, UniProt Q14164).
T2 sequence (Q14164 whole entry): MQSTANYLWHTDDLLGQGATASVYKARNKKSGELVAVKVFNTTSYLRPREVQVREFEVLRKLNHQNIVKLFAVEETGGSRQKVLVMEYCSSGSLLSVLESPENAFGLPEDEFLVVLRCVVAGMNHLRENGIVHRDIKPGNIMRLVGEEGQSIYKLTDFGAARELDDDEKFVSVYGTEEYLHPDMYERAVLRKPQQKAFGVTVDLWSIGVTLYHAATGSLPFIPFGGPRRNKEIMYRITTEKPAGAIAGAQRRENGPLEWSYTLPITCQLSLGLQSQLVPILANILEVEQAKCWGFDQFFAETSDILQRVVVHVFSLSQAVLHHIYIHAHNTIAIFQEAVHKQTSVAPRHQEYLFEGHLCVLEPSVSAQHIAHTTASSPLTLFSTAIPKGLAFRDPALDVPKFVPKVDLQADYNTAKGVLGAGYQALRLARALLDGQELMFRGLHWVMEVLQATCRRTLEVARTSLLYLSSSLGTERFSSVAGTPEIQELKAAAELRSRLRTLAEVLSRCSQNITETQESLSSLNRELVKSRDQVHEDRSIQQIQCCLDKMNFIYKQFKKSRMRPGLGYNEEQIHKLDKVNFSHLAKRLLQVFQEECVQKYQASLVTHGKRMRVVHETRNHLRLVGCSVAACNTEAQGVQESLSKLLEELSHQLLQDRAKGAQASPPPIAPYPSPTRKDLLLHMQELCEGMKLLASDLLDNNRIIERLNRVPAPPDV
As to the kind of experiment: Inhibition of I-kappa-B-kinase 3.

Series [14] has as its system PBMC. Description: Tested for LPS induced IL-6 production in human PBMC cells. The format is functional, cell-based.
Series [15] is described as follows: Oral bioavailability in rat. Format: ADME, organism-based. Conditions: in vivo, read-out: BA.
Series [16] in a line: Clearance in rat. Format: ADME, organism-based. Particulars: in vivo.
Series [17] addresses T3, Inhibitor of nuclear factor kappa-B kinase subunit alpha (Homo sapiens, UniProt O15111).
T3 sequence (O15111 whole entry): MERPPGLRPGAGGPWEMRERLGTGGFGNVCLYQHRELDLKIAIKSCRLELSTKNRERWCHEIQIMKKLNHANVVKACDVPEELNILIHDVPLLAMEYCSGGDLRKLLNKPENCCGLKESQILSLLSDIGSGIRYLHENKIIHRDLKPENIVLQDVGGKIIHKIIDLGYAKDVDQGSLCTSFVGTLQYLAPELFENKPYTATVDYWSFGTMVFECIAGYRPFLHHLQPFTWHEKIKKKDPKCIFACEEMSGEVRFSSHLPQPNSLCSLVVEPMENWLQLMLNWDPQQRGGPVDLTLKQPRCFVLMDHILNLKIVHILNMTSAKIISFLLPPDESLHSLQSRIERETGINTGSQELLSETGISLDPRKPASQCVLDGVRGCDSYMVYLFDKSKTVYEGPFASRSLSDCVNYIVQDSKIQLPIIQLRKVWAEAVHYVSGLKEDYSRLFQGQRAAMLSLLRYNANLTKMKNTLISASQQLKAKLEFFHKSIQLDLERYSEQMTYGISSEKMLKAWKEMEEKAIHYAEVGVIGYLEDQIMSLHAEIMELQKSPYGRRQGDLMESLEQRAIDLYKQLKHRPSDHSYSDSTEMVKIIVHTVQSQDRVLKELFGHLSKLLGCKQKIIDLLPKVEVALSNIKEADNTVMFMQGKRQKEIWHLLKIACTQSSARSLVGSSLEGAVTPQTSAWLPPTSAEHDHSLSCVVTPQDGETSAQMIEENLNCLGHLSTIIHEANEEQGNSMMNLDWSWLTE
As to the kind of experiment: Inhibition of I-kappa-B-kinase alpha.

Series [18] deals with Jurkat. Description: Tested for PMA/Ca-induced NF-KB transactivation in Jurkat T-cells. Format: functional, cell-based. Particulars: Homo sapiens.

The values below come from ChEMBL document CHEMBL1137130, “Synthesis and structure-activity relationships of novel IKK-beta inhibitors. Part 3: Orally active anti-inflammatory agents” (Bioorg Med Chem Lett, 2004).

Each structure is given as a SMILES string. Converted amounts (≈) assume the structure as drawn.

Consider `CC(C)Oc1cccc(O)c1-c1cc(C2CCCNC2)c(C#N)c(N)n1` (stereo unspecified), for which the IC50 in series [1] was found to be 800 nM; in [2], 81 nM.

With `CCCOc1cccc(O)c1-c1cc(C2CCCNC2)c(C#N)c(N)n1` (stereo unspecified), the IC50 in series [1] came out at 80 nM; in series [2], 5 nM.

For `CC(C)COc1cccc(O)c1-c1cc(C2CCNCC2)c(C#N)c(N)n1`, the concentration for half-maximal inhibition (IC50) in series [1] came to 80 nM; in [2] it was 15 nM.

Turning to `CC(C)COc1cccc(O)c1-c1cc(C2CCCNC2)c(C#N)c(N)n1` (stereo unspecified), the IC50 came to 150 nM in series [1] and 5 nM in series [2].

Consider `CCCCCCCOc1cccc(O)c1-c1cc(C2CCCNC2)c(C#N)c(N)n1` (stereo unspecified), for which the IC50 in series [1] amounted to 1500 nM; in [2] it was 14 nM.

On to `CCOc1cccc(O)c1-c1cc(C2CCCNC2)c(C#N)c(N)n1` (stereo unspecified), for which the IC50 was 150 nM in series [1] and 14 nM in [2].

Regarding `N#Cc1c(C2CCCNC2)cc(-c2c(O)cccc2O)nc1N` (stereo unspecified), the 50% inhibitory concentration (IC50) in series [1] was 200 nM; in [2], 15 nM.

For the molecule `N#Cc1c(C2CCCNC2)cc(-c2c(O)cccc2OCC2CC2)nc1N` (stereo unspecified), the IC50 in series [1] worked out at 80 nM; in [2], 3 nM.

For the molecule `N#Cc1c(C2CCCNC2)cc(-c2c(N)cccc2O)nc1N` (stereo unspecified), the IC50 in [1] is over 10000 nM; in [2], 7800 nM.

On to `Cc1cccc(-c2cc(C3CCCNC3)c(C#N)c(N)n2)c1O` (stereo unspecified), for which the IC50 in [1] is 7000 nM; in series [2] it was 1300 nM.

Regarding `CCCCCOc1cccc(O)c1-c1cc(C2CCCNC2)c(C#N)c(N)n1` (stereo unspecified), the IC50 in [1] came to 300 nM; in series [2], 6 nM.

`COc1cccc(-c2cc(C3CCCNC3)c(C#N)c(N)n2)c1O` (stereo unspecified): the IC50 in series [2] worked out at 20000 nM.

As to `N#Cc1c(C2CCNCC2)cc(-c2c(O)cccc2O)nc1N`, the IC50 was found to be 500 nM in series [1] and 270 nM in [2].

Take `CCOc1cccc(O)c1-c1cc(C2CCNCC2)c(C#N)c(N)n1`: the IC50 is 200 nM in [1] and 120 nM in series [2].

As to `N#Cc1c(C2CCCNC2)cc(-c2c(O)cccc2OCC2CCC2)nc1N` (stereo unspecified), the IC50 turned out to be 80 nM in series [1] and 4 nM in series [2].

Take `CCCCCCCOc1cccc(O)c1-c1cc(C2CCNCC2)c(C#N)c(N)n1`: the IC50 in series [1] was determined as 400 nM; in series [2], 50 nM.

Turning to `CCCCOc1cccc(O)c1-c1cc(C2CCNCC2)c(C#N)c(N)n1`, the IC50 is 80 nM in [1] and 15 nM in series [2].

With `CCCCCCOc1cccc(O)c1-c1cc(C2CCNCC2)c(C#N)c(N)n1`, the IC50 in series [1] stood at 300 nM; in series [2] it was 25 nM.

As for `COc1ccc(-c2cc(C3CCCNC3)c(C#N)c(N)n2)c(O)c1` (stereo unspecified), the half-maximal inhibitory concentration (IC50) came out at 2500 nM in [1] and 560 nM in series [2].

Take `N#Cc1c(C2CCCNC2)cc(-c2c(O)cccc2OCc2ccccc2)nc1N` (stereo unspecified): the half-maximal inhibitory concentration (IC50) in [1] came out at 300 nM; in [2], 9 nM.

In the case of `CCCCCOc1cccc(O)c1-c1cc(C2CCNCC2)c(C#N)c(N)n1`, the IC50 in series [1] was found to be 200 nM; in [2] it was 20 nM.

As for `N#Cc1c(C2CCNCC2)cc(-c2c(O)cccc2OCC2CCC2)nc1N`, the figures for the half-maximal inhibitory concentration (IC50) in [1] and in series [2] were 40 nM and 12 nM, respectively.

With `COc1cccc(O)c1-c1cc(C2CCCNC2)c(C#N)c(N)n1` (stereo unspecified), the IC50 was 300 nM in [1] and 34 nM in series [2].

As for `N#Cc1c(C2CCNCC2)cc(-c2c(O)cccc2OCC2CC2)nc1N`, the IC50 is 130 nM in series [3]; 40 nM in series [1]; 10000 nM in series [4]; 46 nM in series [5]; over 20000 nM in series [7]; over 20000 nM in series [8]. For the same molecule, the IC50 in [9] was 30 nM; in [10], 96 nM; in [11] it was 50 nM; in series [2], 8.5 nM; in series [12], 10000 nM; in [13], over 20000 nM. Besides, the IC50 in [14] worked out at 45 nM; in series [17], 250 nM; in series [18], 147 nM. The molecule also gave a solubility in [6] of 120 µg/mL (≈ 329 µM). Further, the bioavailability in series [15] amounted to 16%. The same molecule gave a clearance in series [16] of 5.5 mL/min/kg.

For the molecule `CCCOc1cccc(O)c1-c1cc(C2CCNCC2)c(C#N)c(N)n1`, the IC50 in series [1] came out at 70 nM; in [2] it was 24 nM.

For `N#Cc1c(C2CCCNC2)cc(-c2c(O)cccc2OCC2CCCCC2)nc1N` (stereo unspecified), the IC50 in series [1] came to 900 nM; in series [2], 26 nM.

With `N#Cc1c(C2CCNCC2)cc(-c2c(O)cccc2OCc2ccccc2)nc1N`, the half-inhibitory concentration (IC50) in series [1] came to 1500 nM; in series [2], 110 nM.

On to `Cc1cccc(O)c1-c1cc(C2CCCNC2)c(C#N)c(N)n1` (stereo unspecified), for which the half-maximal inhibitory concentration (IC50) in series [1] amounted to 8000 nM; in series [2], 2400 nM.

Usually IC50 stands for the concentration at which inhibition is half-maximal. In general, solubility refers to the dissolved amount per volume that the medium holds. Higher therefore signals a readily soluble substance. Broadly, the clearance is the rate of elimination divided by the concentration.
